Experiment [1] addresses T1, Mannose-6-phosphate isomerase (Homo sapiens, UniProt P34949).
T1 sequence (P34949 whole entry): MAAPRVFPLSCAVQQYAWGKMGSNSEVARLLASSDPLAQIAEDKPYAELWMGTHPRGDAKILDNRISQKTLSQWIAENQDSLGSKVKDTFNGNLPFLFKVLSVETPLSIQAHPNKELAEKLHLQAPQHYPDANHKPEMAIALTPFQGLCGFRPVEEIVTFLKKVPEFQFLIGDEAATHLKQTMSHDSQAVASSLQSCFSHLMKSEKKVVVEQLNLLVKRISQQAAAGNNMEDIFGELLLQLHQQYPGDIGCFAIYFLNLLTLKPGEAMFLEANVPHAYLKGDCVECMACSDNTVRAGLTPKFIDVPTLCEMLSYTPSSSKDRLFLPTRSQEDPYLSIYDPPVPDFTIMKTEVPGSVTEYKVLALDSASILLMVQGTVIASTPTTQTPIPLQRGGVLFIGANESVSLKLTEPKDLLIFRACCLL
Kind of experiment: MPI inhibition at elevated mannose 6-phosphate – biochemical, fluorescence intensity, high mannose 6-phosphate, primary screen (AID 1220).

The test system of experiment [2] is BJ. Description: BJ-TERT-LT-ST fibroblast viability loss – cell-based, RAS-independent, luminescence, dose response (AID 1935).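 Further: BJ fibroblasts immortalized with TERT plus LT and ST oncogenes.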 The note with it: Homo sapiens. The experiment is classed as functional.
Experiment [3] can be described thus: Trypanosoma cruzi growth suppression in host cells – NIH3T3 host cells, beta-gal luminescence, confirmation (AID 2044).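 Further: intracellular parasites grown in NIH/3T3 mouse fibroblasts as host cells; luminescent beta-galactosidase reporter signal from transgenic T. cruzi replicating inside host cells; inhibitors lower the luminescence signal.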 The experiment is classed as functional, cell-based.
Experiment [4] has as its system BJ. Kind of experiment: cells. The experiment is classed as functional, cell-based. The note with it: Homo sapiens.
The target in experiment [5] is FAD-linked sulfhydryl oxidase ALR (Homo sapiens, UniProt P55789). Description: ALR-catalysed DTT oxidation blockers – biochemical, H2O2 detection, luminescence, cherry-pick, dose response (AID 493248).
Experiment [6] is described as follows: DRD fibroblast viability loss – cell-based, non-viral oncogenic, luminescence, dose response (AID 1934). The experiment is classed as functional. The conditions noted are these: Homo sapiens.
Experiment [7] concerns BJ. Description: BJ-TERT fibroblast viability loss – cell-based, RAS-independent, luminescence, dose response (AID 1933). The experiment is classed as functional. The conditions noted are these: Homo sapiens.
Experiment [8] can be described thus: NIH3T3 cell viability loss – ATP luminescence, mouse fibroblasts, counter-screen, dose response (AID 2010).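 Further: cells exposed to compound for about 90 hours before reading.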 The experiment is classed as functional, cell-based. Background: Counterscreens check selectivity or assay interference.
A short description of experiment [9]: luciferase reporter signal reduction – luminescence, H4-C neuroglioblastoma cells, dose response (AID 2458).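 Further: H4 neuroglioblastoma cells stably carrying a luciferase reporter gene fusion.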 The experiment is classed as functional, cell-based. (A reporter such as luciferase makes a cellular process visible.)
A short description of experiment [10]: Luminescence Cell-Based Dose Response HTS to Identify Inhibitors of 5'UTR Stem-Loop Driven Prion Protein mRNA Translation in H4 Neuroglioblastoma Cells. [Related pubchem assays: 1827 (Project Summary), 1813 (Primary HTS)]. The experiment is classed as functional.
The nature of experiment [11]: cells. The experiment is classed as functional, cell-based.
Experiment [12] is described as follows: alpha-synuclein stem-loop luciferase translation blockers – H4 neuroglioma cells, luminescence, confirmation (AID 1988). The experiment is classed as functional, cell-based.
Experiment [13] is described as follows: alpha-synuclein stem-loop translation blockers – luminescence, H4 neuroglioblastoma cells, dose confirmation, confirmation (AID 2454).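 Further: H4 neuroglioblastoma cells carrying an alpha-synuclein 5'UTR luciferase reporter; potency for inhibition of the luciferase signal.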 The experiment is classed as functional, cell-based.
Experiment [14] in a line: luciferase reporter signal suppression in cells – H4 neuroglioma cells, luminescence, dose response (AID 1990). The experiment is classed as functional, cell-based.
For experiment [15], the target named is Eukaryotic translation initiation factor 4E (Mus musculus, UniProt P63073). Description: blockers of eIF4G binding by eIF4E – biochemical, TR-FRET, dose response (AID 855).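 Further: potency for disrupting eIF4E binding to eIF4GI seen as loss of FRET.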 The experiment is classed as functional.
Experiment [16] in a line: viability of uninfected HEp-2 cells – cell-based, HTS, cytotoxicity control for RSV inhibitor project, dose response (AID 2410). The experiment is classed as functional. The note with it: human respiratory syncytial virus.
The nature of experiment [17]: cells.
The nature of experiment [18]: viability loss of HPDE-C7K cells – cell-based, fluorescence, HTS, primary screen (AID 431). The experiment is classed as functional. The conditions noted are these: Homo sapiens.
Experiment [19] can be described thus: HPDE-C7 pancreatic duct cell viability loss – fluorescence, HTS (AID 430). The note with it: Homo sapiens. The experiment is classed as functional, cell-based.
Experiment [20] has as its target DNA dC->dU-editing enzyme APOBEC-3G (Homo sapiens, UniProt Q9HC16). Kind of experiment: Dose Response confirmation of small molecule APOBEC3G DNA Deaminase Inhibitors via a fluorescence-based single-stranded DNA deaminase assay. [Related pubchem assays (depositor defined):AID493012, AID493028]. The experiment is classed as functional.
The target in experiment [21] is DNA dC->dU-editing enzyme APOBEC-3A (Homo sapiens, UniProt P31941). Description: A3A deaminase inhibition for selectivity – biochemical, dose response (AID 504722). The experiment is classed as functional.
Experiment [22] concerns the target T2, Carboxy-terminal domain RNA polymerase II polypeptide A small phosphatase 1 (Homo sapiens, UniProt Q9GZU7).
T2 sequence (Q9GZU7 whole entry): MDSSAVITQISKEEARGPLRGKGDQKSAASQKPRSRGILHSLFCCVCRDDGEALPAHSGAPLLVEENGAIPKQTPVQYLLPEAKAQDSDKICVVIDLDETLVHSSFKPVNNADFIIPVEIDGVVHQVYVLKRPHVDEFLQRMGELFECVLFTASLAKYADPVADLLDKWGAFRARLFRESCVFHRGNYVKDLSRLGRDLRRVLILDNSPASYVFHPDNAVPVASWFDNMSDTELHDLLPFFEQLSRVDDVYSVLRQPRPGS
Description: CTDSP1 inhibitors, concentration-response, biochemical, absorbance readout, ultra-high-throughput screen actives (AID 540297). The experiment is classed as functional.

Another experiment relates to Streptococcus. Description: GAS UMAA2166 growth inhibition – luminescence, BacTiterGlo, counter-screen for streptokinase expression inhibitor project, dose response (AID 1915).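 Further: potency for reduction of bacterial viability or growth.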 The experiment is classed as functional, organism-based.
For experiment [23], the system named is Streptococcus sp. 'group A'. Description: Streptococcus pyogenes SK(-)GAS viability under kanamycin – luminescence, BacTiterGlo, confirmation, counter-screen for streptokinase expression inhibitor project, dose response (AID 1900). The experiment is classed as functional, organism-based.

The source made the active and inactive calls. For most assays here, no stated cut-off is given here; in the data, actives have a measured EC50 and inactives only a lower limit.

Chain of Eukaryotic translation initiation factor 4E (P63073 whole entry): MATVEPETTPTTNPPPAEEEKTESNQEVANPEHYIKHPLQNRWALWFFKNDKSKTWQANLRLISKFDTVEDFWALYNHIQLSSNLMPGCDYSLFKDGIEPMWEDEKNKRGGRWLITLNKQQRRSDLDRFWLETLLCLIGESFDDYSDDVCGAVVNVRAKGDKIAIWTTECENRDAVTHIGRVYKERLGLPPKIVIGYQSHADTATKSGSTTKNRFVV
Chain of DNA dC->dU-editing enzyme APOBEC-3A (P31941 whole entry, the tested form may be a part): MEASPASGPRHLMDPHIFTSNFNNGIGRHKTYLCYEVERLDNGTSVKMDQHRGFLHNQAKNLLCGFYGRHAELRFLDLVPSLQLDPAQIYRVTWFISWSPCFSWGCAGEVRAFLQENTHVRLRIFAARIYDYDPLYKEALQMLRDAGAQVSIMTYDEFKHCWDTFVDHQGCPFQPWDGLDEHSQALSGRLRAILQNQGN
Chain of DNA dC->dU-editing enzyme APOBEC-3G (Q9HC16 whole entry): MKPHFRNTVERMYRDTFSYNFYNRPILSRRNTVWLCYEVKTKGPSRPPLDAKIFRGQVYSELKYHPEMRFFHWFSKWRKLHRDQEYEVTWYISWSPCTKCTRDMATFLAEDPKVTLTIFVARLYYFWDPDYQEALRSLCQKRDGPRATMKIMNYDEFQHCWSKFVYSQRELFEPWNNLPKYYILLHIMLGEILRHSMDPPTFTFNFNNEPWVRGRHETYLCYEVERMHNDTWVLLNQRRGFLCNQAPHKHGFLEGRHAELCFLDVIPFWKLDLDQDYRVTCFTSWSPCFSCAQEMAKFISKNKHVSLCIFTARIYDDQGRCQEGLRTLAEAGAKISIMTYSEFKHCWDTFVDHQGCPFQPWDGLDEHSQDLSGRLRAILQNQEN
Chain of FAD-linked sulfhydryl oxidase ALR (P55789 whole entry): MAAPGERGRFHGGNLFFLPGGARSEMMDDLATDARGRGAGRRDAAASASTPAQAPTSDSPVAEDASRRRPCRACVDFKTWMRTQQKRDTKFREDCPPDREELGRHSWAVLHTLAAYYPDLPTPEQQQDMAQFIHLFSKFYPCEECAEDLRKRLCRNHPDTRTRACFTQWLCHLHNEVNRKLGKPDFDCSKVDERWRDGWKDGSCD

Broadly, the IC50 is the midpoint of a concentration-inhibition curve. Turning to `O=C(N/N=C/c1ccc(N2CCOCC2)o1)c1cccc([N+](=O)[O-])c1`, the IC50 in experiment [1] is on record as > 50 µM (not active).

In general, EC50 refers to the concentration at which the effect is half-maximal. What is called AC50 is the midpoint of the concentration-response curve, whichever way the signal moves. As for `COc1ccc(OC)c(Nc2c3c(nc4ccccc24)CCC3)c1`, the EC50 in the experiment on BJ [2] is 0.284 µM (inconclusive); in experiment [3] it was 3.15 µM (active); in the experiment on BJ [4] it was 15 µM (inconclusive); in experiment [6] it was 12.4 µM (active); in the experiment with BJ [7], 0.463 µM (active); in experiment [8] it was 0.432 µM (active). For the same compound, the EC50 is 0.716 µM (active) in experiment [9]; 0.355 µM (active) in [10]; 0.804 µM (active) in “cells [11]”; < 0.1 µM (active) in experiment [12]; 1.18 µM (active) in experiment [13]; 3.29 µM (active) in experiment [14]. Besides, the AC50 in [5] was 16.2 µM (active).

For `CC(=O)C1=C(c2ccccc2)OC(N)=C(C#N)C1c1ccc(O)cc1` (centres undefined), the IC50 in [15] is > 64 µM (inactive).

In general, CC50 refers to the concentration at which the toxic effect on the cells reaches its halfway point. As to `COc1ccc(N(CC(=O)NC2CCCCC2)C(=O)c2ccc(C)s2)c(OC)c1`, in experiment [16], the CC50 was 43.8 µM (active). Besides, the IC50 in “cells [17]” is 10.9 µM (active).

For the compound `O=C(CNc1cccc(C(F)(F)F)c1)N/N=C/c1cn(-c2ccccc2)nc1-c1ccccc1`, the CC50 in [16] is > 50 µM (active). Moreover, the IC50 in “cells [17]” is 19.8 µM (active).

In the case of `c1ccc(-c2noc(-c3ccc4ccccc4c3)n2)cc1`, the 50% effective concentration (EC50) in [9] is 0.974 µM (active); in experiment [10], 8.76 µM (active); in “cells [11]” it was 0.694 µM (inconclusive); in [12] it was < 0.1 µM (active); in [13], 0.636 µM (active); in experiment [14], < 0.1 µM (active).

As for `COCCCNC(=O)c1ccc(Cn2c(=O)c3ccccc3n(Cc3ccc(C)cc3)c2=O)cc1`, the IC50 in “cells [17]” is 2.98 µM (active).

`CCCc1ccc(Oc2c(C)n[nH]c2-c2ccc(O)c(C)c2O)cc1`: the EC50 in experiment [18] was 4.42 µM (active); in experiment [19], 4.88 µM (active).

On to `COc1ccc(OCc2n[nH]c(=S)n2N)cc1`, for which the values for the IC50 in experiment [20], in experiment [1] and in experiment [21] were 7.1 µM (active), 21.4 µM (active) and > 100 µM (inactive), respectively.

Regarding `O=C(NCc1ccc(F)cc1)c1c2c(nc3ccccc13)CCC2`, the IC50 in experiment [22] was 5.44 µM (active); in experiment [15], 50 µM (inactive).

On to `Cc1cc(C)c(S(=O)(=O)N2CCCCC2CCNC(=O)C(=O)NC2CC2)c(C)c1` (centres undefined), for which, in experiment [16], the half-maximal cytotoxic concentration (CC50) was 20.3 µM (active). Besides, in “cells [17]”, the half-maximal inhibitory concentration (IC50) was 4.37 µM (active).

Turning to `CC1CCc2nn(CC(=O)N3CCCCCC3)cc2C1` (centres undefined), the IC50 in [15] is > 64 µM (inactive).

With `C=CCN1C(=O)NC(=O)/C(=C(/CC)Nc2ccc(N(CC)CC)cc2)C1=O`, the EC50 was 2.03 µM (active) with Streptococcus, > 20 µM (not active) in experiment [18], > 20 µM (not active) in [19] and 1.23 µM (active) in experiment [23].

On to `COc1ccccc1/C=C/C(=O)NCC(=O)N/N=C(/C)c1ccc(Cl)cc1`, for which, in “cells [17]”, the IC50 was 25.4 µM (active).

For the compound `CCCc1cc(-c2[nH]ncc2-c2ccc3c(c2)OCCCO3)c(O)cc1O`, the EC50 is 8.05 µM (active) in [18] and 8.22 µM (active) in [19].

In the case of `CCN1CCN(C(=O)C(C)Nc2cc(Cl)c(OC)cc2OC)CC1` (centres undefined), the IC50 in experiment [1] is reported as > 50 µM (not active).

The record behind these values is ChEMBL document CHEMBL1201862, “PubChem BioAssay data set” (2004).
